Reference: US11315685B2, “Method and system for predicting optimal epilepsy treatment regimes” (UCB BIOPHARMA SPRL, priority 2017, dated 2022)

Tested on: epilepsy patients
Assay: treatment stability of AED monotherapy in the one year evaluation period (medical claims data)
Format: in vivo
Conditions: percentage of patients for which the treatment worked based on the clinician's recommendation; stable = monotherapy for at least 80% of the one year evaluation period without switching; adult epilepsy patients
Text: Step 18 may also include a substep 18e of filtering patients according to a defined target variable indicating AED treatment regime efficacy. In some preferred embodiments, the target variable is treatment stability. An aim of the present disclosure is to measure the efficacy of treatment regimens consisting of one or more AEDs. One way of measuring the efficacy of treatment would be to monitor the patient's progress with respect to seizure frequency before and after treatment. A reduction in the number of seizures would imply that the regimen is effective. […] Accordingly, method 10 defines a proxy for treatment effectiveness. Based on input from domain experts and clinicians, method 10 uses treatment stability as an indicator of the effectiveness of a particular treatment. In some preferred embodiments, a treatment regimen is considered stable for a patient if the patient satisfies a treatment change criteria and a minimum coverage criteria. […] The minimum coverage criteria is satisfied if the patient complies with the treatment regimen which has been prescribed for at least a predetermined percentage of the evaluation period. In one preferred embodiment, the minimum coverage criteria is satisfied if the patient complies with the treatment regimen which has been prescribed for at least 80% evaluation period.
If the MPR is greater than 80%, the patient can be determined to be stable for that drug.
For the unstable outcome, a treatment change occurs during the evaluation period—i.e., within […] the index date at which a first treatment regimen R1 is prescribed—in the form of a second treatment regimen R2. For the stable outcome, a treatment change—i.e., the second regimen R2—occurs after the evaluation period.
In this embodiment, for simplicity, the three aforementioned treatment categories—i.e., ADD, SWITCH and NEW—are not differentiated between when defining the index date and, in contrast to the technique in Devinsky et al., all medication claims for a patient in the baseline period before the AED-specific index date are used to train the AED-specific predictive model for the patient. In other embodiments, the treatment categories can be analyzed separately to assess the efficacy of a treatment regimen in different scenarios. In this embodiment, predictive models are built only for monotherapies, instead of for both monotherapies and combination therapies. For a particular AED, all the adult patients who have been prescribed the AED, have at least 1 year of medical history before the prescription and have at least one year of evaluation period after prescription are analyzed. As mentioned above, this subset of patients constitutes the cohort for the predictive model for the AED being analyzed and the target variable is treatment stability.
The control patients refer to the number of patients which switched to treatments other than the one being analyzed in the evaluation window and were considered unstable on that treatment regimen. The percentage baseline success rate refers to the percentage of patients for which the treatment worked based on the clinician's recommendation. The AUC refers to the area under the ROC curve or the C-statistic which is the ratio of the true positive rate (TPR) and the false positive rate (FPR) for different values of the threshold. This ratio reflects the performance of the model since a higher AUC would imply that higher TPR was achieved and more true positives were obtained than false positives.

SMILES | Percentage Baseline Success Rate
NC(=O)N1c2ccccc2C=Cc2ccccc21 [CARBAMAZEPINE] | 54.76
O=C1CN=C(c2ccccc2Cl)c2cc([N+](=O)[O-])ccc2N1 [CLONAZEPAM, Clonazepam] | 30.98
CN1C(=O)CN=C(c2ccccc2)c2cc(Cl)ccc21 [DIAZEPAM, Diazepam] | 25.22
NCC1(CC(=O)O)CCCCC1 [GABAPENTIN, Gabapentin] | 35.69
COC[C@@H](NC(C)=O)C(=O)NCc1ccccc1 [LACOSAMIDE, Lacosamide] | 37.73
Nc1nnc(-c2cccc(Cl)c2Cl)c(N)n1 [LAMOTRIGINE, Lamotrigine] | 53.32
CC[C@@H](C(N)=O)N1CCCC1=O [LEVETIRACETAM, Levetiracetam] | 54.99
O=C1Nc2ccc(Cl)cc2C(c2ccccc2Cl)=NC1O (stereo not drawn) [LORAZEPAM, Lorazepam] | 25.28
NC(=O)N1c2ccccc2CC(=O)c2ccccc21 [OXCARBAZEPINE, Oxcarbazepine] | 52.83
CCC1(c2ccccc2)C(=O)NC(=O)NC1=O [PHENOBARBITAL, Phenobarbital] | 55.76
O=C1NC(=O)C(c2ccccc2)(c2ccccc2)N1 [PHENYTOIN, Phenytoin] | 45.01
CC(C)C[C@H](CN)CC(=O)O [PREGABALIN, Pregabalin] | 28.60
CCC1(c2ccccc2)C(=O)NCNC1=O [PRIMIDONE, Primidone] | 48.94
CC1(C)O[C@@H]2[C@@H](CO[C@@]3(COS(N)(=O)=O)OC(C)(C)O[C@@H]23)O1 [TOPIRAMATE, Topiramate] | 38.97
NS(=O)(=O)Cc1noc2ccccc12 [ZONISAMIDE, Zonisamide] | 42.95
